Reference: article PMC10099666, “Structure Elucidation, Total Synthesis, Antibacterial In Vivo Efficacy and Biosynthesis Proposal of Myxobacterial Corramycin” (Angewandte Chemie (International Ed. in English), 2022)
Values after ≈ are worked out from the molar mass of the structure shown. *1 amine or outer side, *2 acyl side, *3 side chain or, on linkers, in order; H or OH if unused. Where a SMILES comes first, the peptide text is derived from it. [ ]: non-standard residue; d: D form. The star is where a group is joined. Ava(2S,3R-(OH)2,4S-OMe) = CO[C@@H](CN[*:1])[C@H](O)[C@H](O)C(=O)[*:2]; dHis(βS-OH,π-Me) = Cn1cncc1[C@@H](O)[C@@H](N)C(=O)O; Butanoyl(2R-OH,3S-OH) = C[C@H](O)[C@@H](O)C(=O)*; Val(3-OH) = CC(C)(O)[C@H](N)C(=O)O; NMeF = CN[C@@H](Cc1ccccc1)C(=O)O

Key:
[1] = system: Enterobacter cloacae 17059482; type: cell-based; settings: strain 17059482; CAMHB, CLSI/EUCAST broth microdilution, 5x10^5 CFU mL-1, 20-22 h, duplicates
Method: (§1) 5. Determination of the minimal inhibitory concentration (MIC) in vitro The MIC of Corramycin was evaluated following the Clinical & Laboratory Standard Institute (CLSI; https://clsi.org) and EUCAST (https://eucast.org) guidelines. First, inoculi of the bacterial test strains were prepared by culturing isolated colonies in cation-adjusted Müller Hinton broth (CAMHB; 2 g L-1 beef infusion solids, 1.5 g L-1 starch, 17.5 g L-1 casein hydrolysates, final pH 7.4) at 37 °C and 180 rpm for 18 h. Next, Corramycin, which was dissolved in DMSO, was transferred into the first row of a 96-well plate to reach an end concentration of 64 µg mL-1 (in 100 µL total volume). A 1:1 serial dilution in cation-adjusted Mueller Hinton broth (CAMHB) of the test compound was done from the top row to the bottom row of the 96-well plate to reach an end concentration of 0.125 µg mL-1 in the bottom row. Afterwards, the respective test strains were transferred into the wells, reaching a total volume of 100 µL and 5x10^5 colony-forming units (CFU) mL-1. After a 20 to 22 h of incubation, the optical density was evaluated on a microplate reader and the MIC endpoint was determined as the lowest concentration of antibiotic at which there was no visible growth observed. Each MIC experiment was performed in duplicates. Table S 4 depicts the MIC values of Corramycin against all bacterial strains tested in this study.
(§2) Table S 4. MIC values of Corramycin against all bacterial strains tested in this study. […]

[2] = system: Enterococcus faecium A6349; type: cell-based; settings: strain A6349; CAMHB, CLSI/EUCAST broth microdilution, 5x10^5 CFU mL-1, 20-22 h, duplicates
Method: as §1, §2

[3] = system: Enterococcus faecium DSM17050; type: cell-based; settings: strain DSM17050; CAMHB, CLSI/EUCAST broth microdilution, 5x10^5 CFU mL-1, 20-22 h, duplicates
Method: as §1, §2

Escherichia coli 1705863 = type: cell-based; settings: strain 1705863; CAMHB, CLSI/EUCAST broth microdilution, 5x10^5 CFU mL-1, 20-22 h, duplicates
Method: as §1, §2

[4] = system: Escherichia coli DSM46345; type: cell-based; settings: strain DSM46345; CAMHB, CLSI/EUCAST broth microdilution, 5x10^5 CFU mL-1, 20-22 h, duplicates
Method: as §1, §2

[5] = system: Escherichia coli MG1655 WT; type: cell-based; settings: strain MG1655 WT; CAMHB, CLSI/EUCAST broth microdilution, 5x10^5 CFU mL-1, 20-22 h, duplicates
Method: as §1, §2

[6] = system: Escherichia coli NCTC13441; type: cell-based; settings: strain NCTC13441; CAMHB, CLSI/EUCAST broth microdilution, 5x10^5 CFU mL-1, 20-22 h, duplicates
Method: as §1, §2

[7] = system: mice infected with E. coli ATCC35218; type: in vivo; settings: i.v. 20 mg kg^−1 Corramycin in E. coli mouse infection model
Method: As bacterial resistance development in minimal media is thought to be more mimetic to an actual infection in vivo, we decided to test the in vivo efficacy of Corramycin in infected mice, despite the poor FoR experiment results in the rich medium. The mice were first infected intraperitoneally with E. coli ATCC35218 and subsequently treated with different doses of Corramycin ranging from a total of 10 to 30 mg per kg body weight divided into two doses, 1 hour and 3 hours after infection.
Figure 4 In vivo antibacterial activity of Corramycin in infected mice. A) Colony forming unit (CFU) load of E. coli ATCC35218 in blood 4 hours post infection with 2.10^7 CFU. 5 mice per dose were used. […]; Tienam: Imipenem/Cilastatin treatment (positive control, dark grey bar); Corramycin treatment with different doses (light blue, blue and dark blue bars). B) Survival rate [in %] of 10 mice per dose 3, 6, 24, 48, 72 and 96 hours post infection.
13.2 Complementation of SbmA and YejEF in the E. coli deletion mutant […]
14.1 Infection of the test animals and treatment with Corramycin in vivo For the in vivo infection and antibiotic treatment experiments a total of 75 male Swiss albino mice, divided into five groups with 15 animals, were used. Before infecting the test animals, the weight of each animal was determined (Suppl. Raw Data 1). […]

CO[C@@H](CNC(=O)[C@H](NC(=O)[C@H](O)[C@H](C)O)[C@H](O)c1cncn1C)[C@H](O)[C@H](O)C(=O)N(C)[C@@H](Cc1ccccc1)C(=O)NCC(=O)N[C@H](C(=O)N[C@@H](CO)C(=O)N[C@H](C(=O)N[C@@H](CC(C)C)C(=O)N[C@@H](CO)C(=O)O)C(C)(C)O)C(C)(C)O [Corramycin] ({Butanoyl(2R-OH,3S-OH)}-[dHis(βS-OH,π-Me)][Ava(2S,3R-(OH)2,4S-OMe)][NMeF]G[Val(3-OH)]S[Val(3-OH)]LS-OH)
MIC [1]: >64 µg/mL | MIC [2]: >64 µg/mL | MIC [3]: 64 µg/mL (≈ 54 µM) | MIC (Escherichia coli 1705863): 8 µg/mL (≈ 6.76 µM) | MIC [4]: 32 µg/mL (≈ 27 µM) | MIC [5]: 8 to 16 µg/mL | MIC [6]: 4 µg/mL (≈ 3.38 µM) | Toxic side effects in mice [7]: without toxic side effects
